PubChem BioAssay AID1745844 (Carcinogenic Potency Database (CPDB), 2022)
Values joined by “and” are separate entries in the source; they are usually repeats but may differ in a detail not shown here. Equal entries are not always repeated. Active and inactive are the calls of the source. No rule for the calls is given here.

System: rodent lifetime carcinogenesis bioassay, tumor incidence TD50
Experiment: chronic cancer bioassays in animals – CPDB, compiled studies (AID 1745844)

Nc1ccccc1N
TD50 (mouse, strain CD-1 HaM/ICR, females, in feed, site: any site (literature study), lesion: several types, types named in the paper, dosed 77 weeks, study length 90 weeks): 676 mg/kg/day
TD50 (mouse, strain CD-1 HaM/ICR, females, in feed, site: liver, lesion: hepatoma, dosed 77 weeks, study length 90 weeks): 611 mg/kg/day
TD50 (mouse, strain CD-1 HaM/ICR, females, in feed, site: liver, lesion: several types, types named in the paper, dosed 77 weeks, study length 90 weeks): 507 mg/kg/day
TD50 (mouse, strain CD-1 HaM/ICR, females, in feed, site: lung, lesion: several types, types named in the paper, dosed 77 weeks, study length 90 weeks): 2260 mg/kg/day (inactive)
TD50 (mouse, strain CD-1 HaM/ICR, males, in feed, site: any site (literature study), lesion: several types, types named in the paper, dosed 77 weeks, study length 86 weeks): 1970 mg/kg/day
TD50 (mouse, strain CD-1 HaM/ICR, males, in feed, site: liver, lesion: hepatoma, dosed 77 weeks, study length 86 weeks): 921 mg/kg/day and 1110 mg/kg/day
TD50 (mouse, strain CD-1 HaM/ICR, males, in feed, site: liver, lesion: several types, types named in the paper, dosed 77 weeks, study length 86 weeks): 921 mg/kg/day
TD50 (mouse, strain CD-1 HaM/ICR, males, in feed, site: lung, lesion: several types, types named in the paper, dosed 77 weeks, study length 86 weeks): 3210 mg/kg/day (inactive)
TD50 (rat, strain Charles River CD (Sprague-Dawley), males, in feed, site: liver, lesion: hepatoma, dosed 77 weeks, study length 107 weeks): 248 mg/kg/day and 315 mg/kg/day
TD50 (rat, strain Charles River CD (Sprague-Dawley), males, in feed, site: liver, lesion: several types, types named in the paper, dosed 77 weeks, study length 107 weeks): 248 mg/kg/day

O=C(O)c1ccc([N+](=O)[O-])cc1
TD50 (mouse, strain B6C3F1, females, in feed, site: any site (literature study), lesion: several types, types named in the paper, dosed 103 weeks, study length 104 weeks): 3160 mg/kg/day (inactive)
TD50 (mouse, strain B6C3F1, females, in feed, site: lung, lesion: alveolar/bronchiolar adenoma + alveolar/bronchiolar carcinoma, dosed 103 weeks, study length 104 weeks): 2330 mg/kg/day
carcinogen call (mouse, strain B6C3F1, males, in feed, site: any site (literature study), lesion: several types, types named in the paper, dosed 103 weeks, study length 104 weeks): negative (inactive)
TD50 (mouse, strain B6C3F1, males, in feed, site: lung, lesion: alveolar/bronchiolar adenoma + alveolar/bronchiolar carcinoma, dosed 103 weeks, study length 104 weeks): 4350 mg/kg/day
TD50 (rat, strain Fischer 344, females, in feed, site: any site (literature study), lesion: several types, types named in the paper, dosed 103 weeks, study length 104 weeks): 373 mg/kg/day
TD50 (rat, strain Fischer 344, females, in feed, site: clitoral gland, lesion: adenoma + adenoma, bilateral + carcinoma + carcinoma, bilateral, dosed 103 weeks, study length 104 weeks): 287 mg/kg/day
TD50 (rat, strain Fischer 344, females, in feed, site: clitoral gland, lesion: adenoma + adenoma, bilateral, dosed 103 weeks, study length 104 weeks): 439 mg/kg/day
TD50 (rat, strain Fischer 344, females, in feed, site: clitoral gland, lesion: carcinoma + carcinoma, bilateral, dosed 103 weeks, study length 104 weeks): 1080 mg/kg/day
TD50 (rat, strain Fischer 344, females, in feed, site: uterus, lesion: endometrial stromal polyp + endometrial stromal sarcoma, dosed 103 weeks, study length 104 weeks): 197 mg/kg/day
TD50 (rat, strain Fischer 344, females, in feed, site: uterus, lesion: endometrial stromal polyp, dosed 103 weeks, study length 104 weeks): 220 mg/kg/day
TD50 (rat, strain Fischer 344, males, in feed, site: preputial gland, lesion: carcinoma + carcinoma, bilateral, dosed 103 weeks, study length 104 weeks): 926 mg/kg/day (inactive)

Cc1ccc2c(-c3cccc(O)c3)nc(=O)n(C(C)C)c2c1
carcinogen call (mouse, strain Charles River CD1, females, in feed, site: liver, lesion: hemangiosarcoma, dosed 86 weeks, study length 86 weeks): negative (inactive)
carcinogen call (mouse, strain Charles River CD1, females, in feed, site: lung, lesion: alveolar/bronchiolar adenoma, dosed 86 weeks, study length 86 weeks): negative (inactive)
TD50 (mouse, strain Charles River CD1, females, in feed, site: lung, lesion: alveolar/bronchiolar carcinoma, dosed 86 weeks, study length 86 weeks): 4600 mg/kg/day (inactive)
carcinogen call (mouse, strain Charles River CD1, females, in feed, site: lung, lesion: hibernoma, malignant, dosed 86 weeks, study length 86 weeks): negative (inactive)
carcinogen call (mouse, strain Charles River CD1, males, in feed, site: liver, lesion: hemangiosarcoma, dosed 86 weeks, study length 86 weeks): negative (inactive)
carcinogen call (mouse, strain Charles River CD1, males, in feed, site: lung, lesion: alveolar/bronchiolar adenoma, dosed 86 weeks, study length 86 weeks): negative (inactive)
TD50 (mouse, strain Charles River CD1, males, in feed, site: lung, lesion: alveolar/bronchiolar carcinoma, dosed 86 weeks, study length 86 weeks): 8400 mg/kg/day (inactive)
carcinogen call (rat, strain Sandoz, females, in feed, site: liver, lesion: hepatocellular carcinoma, dosed 104 weeks, study length 104 weeks): negative (inactive)
TD50 (rat, strain Sandoz, females, in feed, site: liver, lesion: neoplastic nodule, dosed 104 weeks, study length 104 weeks): 2220 mg/kg/day (inactive)
carcinogen call (rat, strain Sandoz, females, in feed, site: mammary tissue, wider than the gland, lesion: fibroadenoma, dosed 104 weeks, study length 104 weeks): negative (inactive)
TD50 (rat, strain Sandoz, males, in feed, site: adrenal gland, lesion: malignant tumor, dosed 104 weeks, study length 104 weeks): 113 mg/kg/day (inactive)
carcinogen call (rat, strain Sandoz, males, in feed, site: liver, lesion: one or several types, types not named, dosed 104 weeks, study length 104 weeks): negative (inactive)

Clc1ccc(-c2ccc(Cl)c(Cl)c2Cl)c(Cl)c1Cl
TD50 (rat, strain Sherman COBS, females, in feed, site: liver, lesion: hepatocellular carcinoma, dosed 89 weeks, study length 95 weeks): 18.3 mg/kg/day
TD50 (rat, strain Sherman COBS, females, in feed, site: liver, lesion: neoplastic nodule, dosed 89 weeks, study length 95 weeks): 1.76 mg/kg/day
TD50 (rat, strain Sherman COBS, females, in feed, site: liver, lesion: several types, types named in the paper, dosed 89 weeks, study length 95 weeks): 1.04 mg/kg/day
TD50 (rat, strain Sprague-Dawley, females, in feed, site: liver, lesion: cholangioma, dosed 104 weeks, study length 104 weeks): 98.2 mg/kg/day
TD50 (rat, strain Sprague-Dawley, females, in feed, site: liver, lesion: hepatocellular adenoma, dosed 104 weeks, study length 104 weeks): 6.43 mg/kg/day
TD50 (rat, strain Sprague-Dawley, females, in feed, site: liver, lesion: hepatocellular carcinoma, dosed 104 weeks, study length 104 weeks): 41.4 mg/kg/day
TD50 (rat, strain Sprague-Dawley, females, in feed, site: liver, lesion: several types, types named in the paper, dosed 104 weeks, study length 104 weeks): 5.51 mg/kg/day
TD50 (rat, strain Sprague-Dawley, males, in feed, site: liver, lesion: hepatocellular adenoma, dosed 104 weeks, study length 104 weeks): 24.8 mg/kg/day
TD50 (rat, strain Sprague-Dawley, males, in feed, site: liver, lesion: hepatocellular carcinoma, dosed 104 weeks, study length 104 weeks): 121 mg/kg/day
TD50 (rat, strain Sprague-Dawley, males, in feed, site: liver, lesion: several types, types named in the paper, dosed 104 weeks, study length 104 weeks): 20 mg/kg/day
TD50 (rat, strain Sprague-Dawley, males, in feed, site: thyroid gland, lesion: follicular-cell adenoma, dosed 104 weeks, study length 104 weeks): 11.4 mg/kg/day
TD50 (rat, strain Sprague-Dawley, males, in feed, site: thyroid gland, lesion: follicular-cell carcinoma, dosed 104 weeks, study length 104 weeks): 232 mg/kg/day
TD50 (rat, strain Sprague-Dawley, males, in feed, site: thyroid gland, lesion: several types, types named in the paper, dosed 104 weeks, study length 104 weeks): 10.3 mg/kg/day
TD50 (rat, strain Wistar, males, in feed, site: liver, lesion: hepatocellular carcinoma, dosed 116 weeks, study length 116 weeks): 5.39 mg/kg/day

CN(C)CCOC(C)(c1ccccc1)c1ccccn1 (centres undefined)
TD50 (mouse, strain B6C3F1, females, in feed, site: liver, lesion: hepatocellular adenoma, dosed 104 weeks, study length 104 weeks): 633 mg/kg/day
TD50 (mouse, strain B6C3F1, females, in feed, site: lung, lesion: alveolar/bronchiolar adenoma, dosed 65 weeks, study length 65 weeks): 78.7 mg/kg/day
TD50 (mouse, strain B6C3F1, females, in feed, site: lung, lesion: several types, types named in the paper, dosed 104 weeks, study length 104 weeks): 170 mg/kg/day
TD50 (mouse, strain B6C3F1, females, in feed, site: thyroid gland, lesion: follicular-cell adenoma, dosed 104 weeks, study length 104 weeks): 740 mg/kg/day
TD50 (mouse, strain B6C3F1, females, in feed, site: thyroid gland, lesion: follicular-cell tumor, dosed 104 weeks, study length 104 weeks): 672 mg/kg/day
TD50 (mouse, strain B6C3F1, males, in feed, site: liver, lesion: hepatocellular adenoma, dosed 65 weeks, study length 65 weeks): 77.8 mg/kg/day
TD50 (mouse, strain B6C3F1, males, in feed, site: liver, lesion: hepatocellular adenoma, dosed 104 weeks, study length 104 weeks): 144 mg/kg/day
TD50 (mouse, strain B6C3F1, males, in feed, site: liver, lesion: several types, types named in the paper, dosed 104 weeks, study length 104 weeks): 125 mg/kg/day
TD50 (mouse, strain B6C3F1, males, in feed, site: lung, lesion: alveolar/bronchiolar adenoma, dosed 65 weeks, study length 65 weeks): 3180 mg/kg/day
TD50 (mouse, strain B6C3F1, males, in feed, site: thyroid gland, lesion: follicular-cell adenoma, dosed 104 weeks, study length 104 weeks): 273 mg/kg/day
carcinogen call (rat, strain Fischer 344, females, in feed, site: liver, lesion: several types, types named in the paper, dosed 104 weeks, study length 104 weeks): negative (inactive)
TD50 (rat, strain Fischer 344, males, in feed, site: all sites, lesion: mononuclear-cell leukemia, dosed 104 weeks, study length 104 weeks): 271 mg/kg/day
TD50 (rat, strain Fischer 344, males, in feed, site: liver, lesion: hepatocellular adenoma, dosed 65 weeks, study length 65 weeks): 469 mg/kg/day
TD50 (rat, strain Fischer 344, males, in feed, site: liver, lesion: hepatocellular adenoma, dosed 104 weeks, study length 104 weeks): 3270 mg/kg/day
TD50 (rat, strain Fischer 344, males, in feed, site: liver, lesion: hepatocellular carcinoma, dosed 104 weeks, study length 104 weeks): 3270 mg/kg/day
TD50 (rat, strain Fischer 344, males, in feed, site: liver, lesion: several types, types named in the paper, dosed 104 weeks, study length 104 weeks): 1610 mg/kg/day

Cc1ccccc1OCC(O)CNCCn1cc(C)c(=O)[nH]c1=O (centres undefined)
TD50 (mouse, strain Charles River CD1, females, in feed, site: any site (literature study), lesion: several types, types named in the paper, dosed 78 weeks, study length 78 weeks): 52.3 mg/kg/day
TD50 (mouse, strain Charles River CD1, females, in feed, site: liver, lesion: hepatocellular carcinoma, dosed 78 weeks, study length 78 weeks): 1670 mg/kg/day
TD50 (mouse, strain Charles River CD1, females, in feed, site: lung, lesion: adenocarcinoma, dosed 78 weeks, study length 78 weeks): 1670 mg/kg/day
TD50 (mouse, strain Charles River CD1, females, in feed, site: lung, lesion: adenoma, dosed 78 weeks, study length 78 weeks): 449 mg/kg/day
TD50 (mouse, strain Charles River CD1, males, in feed, site: liver, lesion: hepatocellular carcinoma, dosed 78 weeks, study length 78 weeks): 935 mg/kg/day

CCN(CC(F)(F)F)N=O
TD50 (rat, strain Sprague-Dawley, males, by gavage, site: esophagus, lesion: papillary carcinoma, dosed 88 weeks, study length 88 weeks): 2.52 mg/kg/day
TD50 (rat, strain Sprague-Dawley, males, by gavage, site: nasal cavity, lesion: several types, types named in the paper, dosed 88 weeks, study length 88 weeks): 7.34 mg/kg/day

O=P(=O)O
TD50 (rat, strain F344/DuCrj, females, in feed, site: any site (literature study), lesion: several types, types named in the paper, dosed 108 weeks, study length 108 weeks): 5100 mg/kg/day (inactive)
carcinogen call (rat, strain F344/DuCrj, females, in feed, site: liver, lesion: one or several types, types not named, dosed 108 weeks, study length 108 weeks): negative (inactive)
carcinogen call (rat, strain F344/DuCrj, males, in feed, site: any site (literature study), lesion: several types, types named in the paper, dosed 108 weeks, study length 108 weeks): negative (inactive)
carcinogen call (rat, strain F344/DuCrj, males, in feed, site: liver, lesion: one or several types, types not named, dosed 108 weeks, study length 108 weeks): negative (inactive)
